From ChEMBL document CHEMBL4616663, “Resorcylic Acid Lactones from an Ilyonectria sp” (J Nat Prod, 2020)
Active and inactive are the calls of the source. No cut-off for these calls is given here.

Experiments:
[1] = tested on: B-cell line; assay: Immunosuppressive activity in BALB/c mouse B cells assessed as reduction in LPS-induced cell proliferation; assay type: functional, cell-based
[2] = tested on: HCT-116; assay: Cytotoxicity against human HCT116 cells at 50 uM by MTT assay; assay type: functional, cell-based
[3] = tested on: 769-P; assay: Cytotoxicity against human 769-P cells at 50 uM by MTT assay; assay type: functional, cell-based
[4] = tested on: A549; assay: Cytotoxicity against human A549 cells at 50 uM by MTT assay; assay type: functional, cell-based
[5] = tested on: T-cell; assay: Immunosuppressive activity in BALB/c mouse T cells assessed as reduction in ConA-induced cell proliferation; assay type: functional, cell-based
[6] = tested on: A549; assay: Cytotoxicity against TRAIL-resistant human A549 cells assessed as reduction in cell viability at 30 uM cotreated with TRAIL after 24 hrs by MTT assay relative to compound alone; assay type: functional
[7] = tested on: A549; assay: Cytotoxicity against TRAIL-resistant human A549 cells assessed as reduction in cell viability at 50 uM cotreated with TRAIL after 24 hrs by MTT assay relative to compound alone; assay type: functional
[8] = tested on: A549; assay: Cytotoxicity against TRAIL-resistant human A549 cells assessed as reduction in cell viability at 15 uM cotreated with TRAIL after 24 hrs by MTT assay relative to compound alone; assay type: functional

## C[C@H]1OC(=O)c2c(O)cc(O)c(Cl)c2/C=C/CC/C=C/[C@@H]1O
[1]
  IC50: > 25 µM
[2]
  Activity: inactive
[3]
  Activity: inactive
[4]
  Activity: inactive
[5]
  IC50: > 25 µM

## C[C@@H]1C[C@@H](O)/C=C\CCCC(=O)Cc2c(Cl)c(O)cc(O)c2C(=O)O1
[1]
  IC50: 21.9 µM
[2]
  Activity: inactive
[3]
  Activity: inactive
[4]
  Activity: inactive
[5]
  IC50: > 25 µM

## C[C@@H]1CC(=O)CCC/C=C/C(=O)Cc2c(Cl)c(O)cc(O)c2C(=O)O1
[1]
  IC50: > 25 µM
[2]
  Activity: inactive
[3]
  Activity: inactive
[4]
  Activity: inactive
[5]
  IC50: > 25 µM

## C[C@@H]1C/C=C/CC/C=C/[C@@H](O)CC(=O)Cc2c(Cl)c(O)cc(O)c2C(=O)O1
[6]
  Activity: 31%
[7]
  Activity: 29%
[1]
  IC50: 9.8 µM
[8]
  Activity: 22%
[2]
  Activity: inactive
[3]
  Activity: inactive
[4]
  Activity: inactive
[5]
  IC50: 4.1 µM

## COc1c(C)c2c(c(O)c1C/C=C(\C)CCC(=O)OCCN1CCOCC1)C(=O)OC2 [MYCOPHENOLATE MOFETIL]
[1]
  IC50: 3.2 µM

## C[C@@H]1C[C@@H](O)[C@@H]2CC[C@H](CC(=O)Cc3cc(O)cc(O)c3C(=O)O1)O2
[1]
  IC50: > 25 µM
[2]
  Activity: inactive
[3]
  Activity: inactive
[4]
  Activity: inactive
[5]
  IC50: > 25 µM

## C[C@H]1OC(=O)c2c(O)cc(O)cc2CC(=O)CCCC/C=C/[C@@H]1O
[1]
  IC50: > 25 µM
[2]
  Activity: inactive
[3]
  Activity: inactive
[4]
  Activity: inactive
[5]
  IC50: > 25 µM

## C[C@@H]1CC[C@H](O)C(=O)CCCC(=O)Cc2c(Cl)c(O)cc(O)c2C(=O)O1
[1]
  IC50: > 25 µM
[2]
  Activity: inactive
[3]
  Activity: inactive
[4]
  Activity: inactive
[5]
  IC50: > 25 µM

## C[C@@H]1C[C@@H]2O[C@H]2[C@@H]2O[C@@H]2/C=C/[C@@H](O)CC(=O)Cc2c(Cl)c(O)cc(O)c2C(=O)O1
[1]
  IC50: 1.1 µM
[2]
  Activity: inactive
[3]
  Activity: inactive
[4]
  Activity: inactive
[5]
  IC50: 1.9 µM

## C[C@@H]1C/C=C/C(=O)CCCC(=O)Cc2cc(O)cc(O)c2C(=O)O1
[1]
  IC50: 18.5 µM
[2]
  Activity: inactive
[3]
  Activity: inactive
[4]
  Activity: inactive
[5]
  IC50: > 25 µM

## CO[C@@H]1C=CC=C2Cc3c(Cl)c(O)cc(O)c3C(=O)O[C@H](C)C[C@@H](O)[C@H]1O2
[1]
  IC50: 5.5 µM
[2]
  Activity: inactive
[3]
  Activity: inactive
[4]
  Activity: inactive
[5]
  IC50: > 25 µM

## C[C@@H]1C/C=C/CCCC[C@@H](O)CC(=O)Cc2c(Cl)c(O)cc(O)c2C(=O)O1
[7]
  Activity: 26%
[1]
  IC50: > 25 µM
[2]
  Activity: inactive
[3]
  Activity: inactive
[4]
  Activity: inactive
[5]
  IC50: > 25 µM

## C[C@@H]1C/C=C/CCCC[C@H](O)CC(=O)Cc2c(Cl)c(O)cc(O)c2C(=O)O1
[7]
  Activity: 27%
[1]
  IC50: > 25 µM
[2]
  Activity: inactive
[3]
  Activity: inactive
[4]
  Activity: inactive
[5]
  IC50: > 25 µM
